Measurements taken from ChEMBL document CHEMBL1201862, “PubChem BioAssay data set” (2004).
The source made the active and inactive calls.

Assays:
Cytochrome P450 2D6 = Cytochrome P450 2D6 (Homo sapiens, UniProt P10635);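 note: CYP2D6 member of a cytochrome P450 panel assay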
Cytochrome P450 2C19 = Cytochrome P450 2C19 (Homo sapiens, UniProt P33261); assay: Cytochrome panel assay with activity outcomes. Panel member name: p450-cyp2c19 Compounds with AC50 equal or less than 10 uM are considered active; assay type: functional
Sequence of Cytochrome P450 2C19 (P33261 whole entry): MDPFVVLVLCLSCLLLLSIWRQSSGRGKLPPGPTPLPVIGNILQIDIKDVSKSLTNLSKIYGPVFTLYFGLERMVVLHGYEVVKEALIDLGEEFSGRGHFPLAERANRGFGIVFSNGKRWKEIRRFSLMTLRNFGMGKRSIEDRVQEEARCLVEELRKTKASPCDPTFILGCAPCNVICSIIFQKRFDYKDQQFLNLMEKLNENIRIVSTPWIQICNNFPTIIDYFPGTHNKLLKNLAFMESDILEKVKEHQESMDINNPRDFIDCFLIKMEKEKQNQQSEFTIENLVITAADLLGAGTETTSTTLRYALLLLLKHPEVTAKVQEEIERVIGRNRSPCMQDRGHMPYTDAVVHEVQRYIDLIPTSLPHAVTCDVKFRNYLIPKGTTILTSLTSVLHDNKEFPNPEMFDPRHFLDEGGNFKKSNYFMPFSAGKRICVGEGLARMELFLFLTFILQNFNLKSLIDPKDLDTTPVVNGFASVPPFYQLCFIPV

[1] = NIH3T3 cell viability loss – ATP luminescence, mouse fibroblasts, counter-screen, dose response (AID 2010); assay type: functional, cell-based;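 note: cells exposed to compound for about 90 hours before reading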
[2] = Trypanosoma cruzi growth suppression in host cells – NIH3T3 host cells, beta-gal luminescence, confirmation (AID 2044); assay type: functional, cell-based;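 note: intracellular parasites grown in NIH/3T3 mouse fibroblasts as host cells; luminescent beta-galactosidase reporter signal from transgenic T. cruzi replicating inside host cells; inhibitors lower the luminescence signal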
[3] = target: T1, Zinc finger protein mex-5 (Caenorhabditis elegans, UniProt Q9XUB2); assay: potency of MEX-5 RNA-binding blockers – biochemical, C. elegans, fluorescence polarization, dose response (AID 1960)
T1 sequence (Q9XUB2 whole entry): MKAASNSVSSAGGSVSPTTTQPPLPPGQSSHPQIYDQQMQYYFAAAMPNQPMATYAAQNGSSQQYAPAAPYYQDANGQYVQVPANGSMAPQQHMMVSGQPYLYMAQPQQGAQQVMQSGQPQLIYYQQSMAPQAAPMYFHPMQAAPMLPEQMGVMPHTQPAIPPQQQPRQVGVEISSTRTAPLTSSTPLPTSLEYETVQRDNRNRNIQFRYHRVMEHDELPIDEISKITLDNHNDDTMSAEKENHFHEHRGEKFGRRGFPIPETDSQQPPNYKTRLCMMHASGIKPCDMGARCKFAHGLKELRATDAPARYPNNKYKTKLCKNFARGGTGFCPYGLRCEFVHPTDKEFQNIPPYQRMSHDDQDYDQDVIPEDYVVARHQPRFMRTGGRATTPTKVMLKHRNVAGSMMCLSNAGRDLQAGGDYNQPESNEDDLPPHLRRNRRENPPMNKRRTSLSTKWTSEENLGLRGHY

[4] = target: T2, RNA-binding protein pos-1 (Caenorhabditis elegans, UniProt G5EF15); assay: disruptors of C. elegans POS-1 RNA interaction – biochemical, fluorescence polarization, dose response (AID 1964);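 note: purified POS-1 fused to maltose binding protein made in E. coli; potency of compounds blocking POS-1 binding to fluorescent RNA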
T2 sequence (G5EF15 whole entry): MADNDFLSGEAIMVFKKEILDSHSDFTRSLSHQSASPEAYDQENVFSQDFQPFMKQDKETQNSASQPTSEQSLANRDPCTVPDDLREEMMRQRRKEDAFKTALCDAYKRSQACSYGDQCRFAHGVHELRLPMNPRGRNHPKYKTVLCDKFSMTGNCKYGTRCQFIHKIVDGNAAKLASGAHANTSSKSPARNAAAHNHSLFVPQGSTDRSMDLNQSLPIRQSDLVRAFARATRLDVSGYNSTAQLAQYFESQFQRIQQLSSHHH

[5] = viability of HCT116 lacking mutant beta-catenin – cell-based, human colon tumor, dose response (AID 1045); assay type: functional;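 note: HCT116 colon tumor cells with beta catenin knocked out; cells exposed to compound for 60 hours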
[6] = viability of PTEN-deleted HCT116 cells – cell-based, HCT116 PTEN knockout, dose response (AID 1047); assay type: functional;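 note: HCT116 colon tumor cells with PTEN knocked out; cells exposed to compound for 60 hours before readout; potency for loss of cell viability measured by luminescence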
[7] = target: T3, Heat shock factor protein 1 (Mus musculus, UniProt P38532); assay: decrease of HSF1-responsive luciferase luminescence – cell-based, NIH3T3, dose retest, confirmation (AID 2382); assay type: functional;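 note: NIH3T3 fibroblasts with HSF1-driven luciferase reporter stressed by proteasome inhibitor MG132; luminescence from HSF1-driven luciferase expression after 8 hours of MG132 stress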
T3 sequence (P38532 whole entry): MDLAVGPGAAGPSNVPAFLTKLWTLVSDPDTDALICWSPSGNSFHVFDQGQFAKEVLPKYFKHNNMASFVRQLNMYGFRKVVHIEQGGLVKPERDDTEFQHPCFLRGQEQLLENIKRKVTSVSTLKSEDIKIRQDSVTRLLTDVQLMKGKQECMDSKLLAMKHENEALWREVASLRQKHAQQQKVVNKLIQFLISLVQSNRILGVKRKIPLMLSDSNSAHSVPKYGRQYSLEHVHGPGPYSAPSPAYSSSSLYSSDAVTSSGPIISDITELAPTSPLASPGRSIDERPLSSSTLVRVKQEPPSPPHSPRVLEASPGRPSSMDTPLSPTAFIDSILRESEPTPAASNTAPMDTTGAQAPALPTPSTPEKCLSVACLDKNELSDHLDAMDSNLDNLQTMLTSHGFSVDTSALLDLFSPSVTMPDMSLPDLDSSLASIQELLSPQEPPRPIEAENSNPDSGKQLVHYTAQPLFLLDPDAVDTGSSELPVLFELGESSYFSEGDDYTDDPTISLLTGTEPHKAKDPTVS

Streptococcus = assay: GAS UMAA2166 growth inhibition – luminescence, BacTiterGlo, counter-screen for streptokinase expression inhibitor project, dose response (AID 1915); assay type: functional, organism-based;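 note: potency for reduction of bacterial viability or growth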
[8] = tested on: Streptococcus sp. 'group A'; assay: Streptococcus pyogenes SK(-)GAS viability under kanamycin – luminescence, BacTiterGlo, confirmation, counter-screen for streptokinase expression inhibitor project, dose response (AID 1900); assay type: functional, organism-based
Cytochrome P450 2C9 = Cytochrome P450 2C9 (Homo sapiens, UniProt P11712)
Sequence of Cytochrome P450 2C9 (P11712 whole entry): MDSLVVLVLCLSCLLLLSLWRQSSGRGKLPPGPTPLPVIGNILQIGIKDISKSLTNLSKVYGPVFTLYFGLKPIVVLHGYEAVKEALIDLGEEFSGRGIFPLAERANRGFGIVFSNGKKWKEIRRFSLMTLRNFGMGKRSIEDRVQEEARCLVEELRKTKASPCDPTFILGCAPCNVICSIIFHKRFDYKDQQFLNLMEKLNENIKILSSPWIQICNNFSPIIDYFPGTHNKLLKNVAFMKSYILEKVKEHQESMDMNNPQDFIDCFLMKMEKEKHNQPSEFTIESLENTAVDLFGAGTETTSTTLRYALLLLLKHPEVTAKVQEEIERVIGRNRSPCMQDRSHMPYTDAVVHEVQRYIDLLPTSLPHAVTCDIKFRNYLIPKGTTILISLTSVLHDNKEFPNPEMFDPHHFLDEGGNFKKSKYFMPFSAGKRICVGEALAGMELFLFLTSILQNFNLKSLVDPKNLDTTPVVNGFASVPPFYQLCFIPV

Sequence of Cytochrome P450 2D6 (P10635 whole entry): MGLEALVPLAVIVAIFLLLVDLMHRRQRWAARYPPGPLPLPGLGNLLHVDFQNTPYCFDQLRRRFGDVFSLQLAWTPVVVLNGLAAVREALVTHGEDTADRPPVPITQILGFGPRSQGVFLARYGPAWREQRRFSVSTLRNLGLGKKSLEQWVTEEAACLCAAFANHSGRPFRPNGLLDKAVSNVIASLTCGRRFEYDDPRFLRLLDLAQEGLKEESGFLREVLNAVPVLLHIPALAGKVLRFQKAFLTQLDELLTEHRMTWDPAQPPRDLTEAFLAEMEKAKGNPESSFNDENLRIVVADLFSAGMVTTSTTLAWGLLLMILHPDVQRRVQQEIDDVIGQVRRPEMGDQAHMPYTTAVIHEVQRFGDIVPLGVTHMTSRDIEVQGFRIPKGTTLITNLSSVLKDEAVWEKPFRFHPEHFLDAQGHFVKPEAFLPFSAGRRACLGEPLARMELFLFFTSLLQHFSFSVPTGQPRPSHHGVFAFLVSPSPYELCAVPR

## Ic1cncc(OC[C@@H]2CCN2)c1
Cytochrome P450 2D6
  AC50: 39.8 µM (inconclusive)
Cytochrome P450 2C19; read-out: AC50
  AC50: 15.8 µM (inconclusive)

## COC(=O)N1CCC2(CCN(C(=O)Nc3ccccc3)CC2)CC1
Cytochrome P450 2C19; read-out: AC50
  AC50: 20 µM (inconclusive)

## O=C(NCc1ccccc1)C1=C[C@@H](c2ccc(C(F)(F)F)cc2)C[C@@H](OCc2ccc(CO)cc2)O1
[1]
  EC50: > 60 µM (not active)
[2]
  EC50: 0.669 µM (active)

## Cc1ncn(-c2ccccc2O)c1C
Cytochrome P450 2D6
  AC50: 3.16 µM (inconclusive)

## Cc1cc(N2C(=O)C(O)=C(C(=O)c3ccco3)C2c2ccc(O)cc2)no1 (stereo not drawn)
Cytochrome P450 2C19; read-out: AC50
  AC50: 35.5 µM (inconclusive)

## CN1CCN(c2ccc(S(=O)(=O)N3CCCCC3)cc2NC(=O)c2ccc(C#N)cc2)CC1
[1]
  EC50: > 60 µM (not active)
[2]
  EC50: 1.14 µM (active)

## CCC(C)NCCOCCOc1ccc(Br)cc1 (stereo not drawn)
[1]
  EC50: > 60 µM (not active)
[2]
  EC50: 0.106 µM (active)

## NCCNc1ncnc2ccc(Cl)cc12
Cytochrome P450 2D6
  AC50: 3.16 µM (inconclusive)

## Cc1cc(C)nc(NN2C(=O)C=CC2=O)n1
[3]
  EC50: 40.8 µM (active)
[4]
  EC50: > 300 µM (not active)

## Cc1ccc(-n2c(N)c(C(=O)Nc3c(C)n(C)n(-c4ccccc4)c3=O)c3nc4ccccc4nc32)cc1C
[5]
  EC50: 11.5 µM (active)
[6]
  EC50: 8.61 µM (active)

## CC(C)(C)N1[C@@H](CC(=O)O)c2cc(C(F)(F)F)ccc2S1(=O)=O
[7]
  EC50: > 195 µM (not active)

## CN(CCCNC(=O)c1ccc(/C=N/O)nc1)CCCN(C)Cc1ccccc1
Cytochrome P450 2C19
  AC50: inconclusive

## Oc1cccc2ccc(/C=C/c3ccc(Br)s3)nc12
Streptococcus
  EC50: 4.33 µM (active)
[8]
  EC50: 2.56 µM (active)

## COc1cc(NC(=O)c2cccs2)c(C(=O)OCC(=O)c2cc(C)n(-c3ccc(F)cc3)c2C)cc1OC
[7]
  EC50: 4.87 µM (active)

## Cc1noc(C)c1-c1nc(NCc2cccs2)c2ccccc2n1
Cytochrome P450 2D6
  AC50: 3.98 µM (inconclusive)

## Fc1ccc(SCCc2ccncc2)cc1
[1]
  EC50: > 30 µM (not active)
[2]
  EC50: 1.27 µM (active)

## CC1CCN(C(=O)CSc2nc(O)c3cnn(-c4ccc(Cl)cc4)c3n2)CC1
[7]
  EC50: > 195 µM (not active)

## CC(C)OCCCn1c(=S)[nH]c2ncccc2c1=O
Cytochrome P450 2C9
  AC50: 1.78 µM (inconclusive)

## COc1ccc(Cl)cc1C(=O)C1CCCN(Cc2cnc(N3CCOCC3)s2)C1 (stereo not drawn)
[1]
  EC50: > 60 µM (not active)
[2]
  EC50: 0.135 µM (active)

## O=C(/C=C/c1ccco1)NC(=S)NNC(=O)c1ccco1
[3]
  EC50: 15.7 µM (active)
[4]
  EC50: 98.1 µM (active)

## CCCCCCCC(=O)NNC(=O)c1c(O)c2ccccc2n(CC)c1=O
Streptococcus
  EC50: 6.17 µM (active)
[8]
  EC50: 2.31 µM (active)

## CN(C)CCCn1c2ccccc2c2cnccc21
Cytochrome P450 2D6
  AC50: 3.98 µM (inconclusive)

## CCCCCCC1CC(C)(C(=O)CNc2nncs2)OC1=O (stereo not drawn)
[1]
  EC50: 23.8 µM (active)
[2]
  EC50: 1.3 µM (active)

## COc1ccc(OC)c(Nc2nc(-c3sc(NC(=O)C(C)(C)C)nc3C)cs2)c1
[7]
  EC50: > 195 µM (not active)

## O=C(NC1CCCCC1)C(c1ccc(F)cc1)N(C(=O)Cc1ccsc1)c1ccc(F)cc1 (stereo not drawn)
[1]
  EC50: > 60 µM (not active)
[2]
  EC50: > 60 µM (not active)

## CC(=O)Nc1nc(-c2ccccc2)nc(-c2ccccc2OC(C)=O)n1
[5]
  EC50: 118 µM (active)
[6]
  EC50: 73.1 µM (active)

## CC(C)=C1C2CCC1C1C(=O)N(c3ccc(C)c(C)c3)C(=O)C21 (stereo not drawn)
[7]
  EC50: > 195 µM (not active)

## CN(CCOc1ccccc1)CC(=O)Nc1ccc(Cl)c(S(=O)(=O)N(C)C)c1
[1]
  EC50: > 60 µM (not active)
[2]
  EC50: 0.503 µM (active)

## COc1cccc(Cn2c(=O)cnc3cnc(Nc4cccc(OC)c4)nc32)c1
Cytochrome P450 2D6
  AC50: 39.8 µM (inconclusive)

## Cc1ccc(NC(=O)CCN2C(=O)c3ccncc3C2=O)cc1
Cytochrome P450 2C19; read-out: AC50
  AC50: 39.8 µM (inconclusive)

## Cc1ccc(C)c(-c2cc(C(=O)NCc3cccs3)c3ccccc3n2)c1
Cytochrome P450 2D6
  AC50: 14.1 µM (inconclusive)
Cytochrome P450 2C19; read-out: AC50
  AC50: 3.55 µM (inconclusive)

## Cc1ccc(-c2c[n+](CC(=O)c3ccc(Br)cc3)c3n2CCCCC3)cc1
[1]
  EC50: > 60 µM (not active)
[2]
  EC50: 0.465 µM (active)

## CC(C)c1ccc(/C=C/C(=O)Nc2nc3ccc([N+](=O)[O-])cc3s2)cc1
[5]
  EC50: 41.3 µM (active)
[6]
  EC50: 23.3 µM (active)

## CCOC(=O)C1=NNC2(c3ccc(Cl)cc3)C(=O)N(c3cc(C)cc(C)c3)C(=O)C12 (stereo not drawn)
Cytochrome P450 2C19; read-out: AC50
  AC50: 2.51 µM (inconclusive)

## COCc1cc(C)nc(SCC(=O)Nc2cc(C(F)(F)F)ccc2N2CCOCC2)c1C#N
[1]
  EC50: > 60 µM (not active)
[2]
  EC50: 0.807 µM (active)

## COc1ccc(CNc2cc(-c3cccnc3)ncn2)c(OC)c1
Cytochrome P450 2D6
  AC50: 39.8 µM (inconclusive)

## COc1ccc(CNc2ccc3c(c2)CCC3)cc1OC
[1]
  EC50: > 30 µM (not active)
[2]
  EC50: 15.4 µM (active)

## O=C(/C(=C(\[O-])c1ccccc1)[n+]1ccc2ccccc2c1)c1ccc([N+](=O)[O-])cc1
[7]
  EC50: > 195 µM (not active)

## FC(F)(F)COc1nc(N/N=C/c2cccnc2)nc(N2CCCCC2c2ccccn2)n1 (stereo not drawn)
[1]
  EC50: > 60 µM (not active)
[2]
  EC50: 2.37 µM (active)

## COc1ccc(CCn2c(=N)c(C(=O)NC3CCCCC3)cc3c(=O)n4ccccc4nc32)cc1
[3]
  EC50: 8.45 µM (inconclusive)
[4]
  EC50: 21.6 µM (active)

## COc1ccc(NC(=O)CN(C)S(=O)(=O)c2ccc3c(c2)CCC(=O)N3)c(OC)c1
[7]
  EC50: > 195 µM (not active)

## Cc1c(C(=O)O)cccc1-n1c(C)cc(/C=C(/C#N)C(=O)NCc2ccccc2)c1C
[3]
  EC50: > 300 µM (not active)
[4]
  EC50: > 300 µM (not active)

## CC(=O)C1=C(c2ccccc2)NC(=O)NC1c1ccc(O)c(O)c1 (stereo not drawn)
[3]
  EC50: 43.4 µM (active)
[4]
  EC50: > 300 µM (not active)

## CCc1ccccc1N1C(=O)/C(=C/c2ccc(N3CCN(C)CC3)o2)C(=O)NC1=S
[4]
  EC50: > 300 µM (inconclusive)

## C(=N\n1cncn1)/c1ccc(N2CCOCC2)cc1
[7]
  EC50: > 195 µM (not active)

## COc1ccc(CNC(=O)C(=O)c2cn(CC(=O)N3CCOCC3)c3ccccc23)cc1
[7]
  EC50: > 195 µM (not active)

## C#CCN1C(=O)C(O)(CC(=O)c2ccc3c(c2)OCCO3)c2ccccc21 (stereo not drawn)
[5]
  EC50: 29.7 µM (active)
[6]
  EC50: 29.7 µM (active)

## C=CCN1C(=O)NC(=O)/C(=C(/CC)NC2CC2)C1=O
Cytochrome P450 2D6
  AC50: 1.12 µM (inconclusive)
Cytochrome P450 2C19; read-out: AC50
  AC50: 22.4 µM (inconclusive)

## CCCCCCn1c(N)c(C(=O)NCCN2CCOCC2)c2nc3ccccc3nc21
[5]
  EC50: 19.7 µM (active)
[6]
  EC50: 17.7 µM (active)

## C/C(=N\Nc1nncc2ccccc12)c1ccc(Cl)c([N+](=O)[O-])c1
[7]
  EC50: > 195 µM (not active)

## Cc1ccc(CCNC(=O)CN2C(=O)COc3ccccc32)cc1
[1]
  EC50: > 60 µM (not active)
[2]
  EC50: 16.4 µM (active)

## Cc1ccc(N2CC(C(=O)Nc3nnc(SCCN4CCOCC4)s3)CC2=O)cc1 (stereo not drawn)
[7]
  EC50: > 195 µM (not active)

## NS(=O)(=O)c1ccc2c(c1)C1C=CCC1C(C1CC=CCC1)N2 (stereo not drawn)
[3]
  EC50: 20.7 µM (inconclusive)
[4]
  EC50: 18.3 µM (active)

## O=C(Nc1ccccc1C(=O)Nc1nnc(C(F)(F)F)s1)c1ccccc1Cl
Streptococcus
  EC50: 3.2 µM (active)
[8]
  EC50: 1.36 µM (active)

## CCOc1ccc2ccccc2c1C1NC(=O)N(C)C(C)=C1C(=O)OCCOC (stereo not drawn)
[3]
  EC50: > 300 µM (not active)
[4]
  EC50: > 300 µM (not active)

## Cc1nn(-c2ccccn2)c2c1C(c1ccccc1Cl)C1=C(N2)c2ccccc2C1=O (stereo not drawn)
[5]
  EC50: 24.9 µM (active)
[6]
  EC50: 24.7 µM (active)
